In US20190330189A1, “ANTIBACTERIAL COMPOUNDS” (Janssen Sciences Ireland UC, priority 2015, published 2019):
Read-outs that look alike come from different tables or passages of the source.

How the values were obtained:
[1] = system: Mycobacterium tuberculosis strain H37Rv; experiment: Test 1: MIC determination, resazurin fluorescence, M. tuberculosis H37Rv; format: cell-based; details: for IC50: Mycobacterium tuberculosis, H37RV
[2] = system: Mycobacterium tuberculosis strain EH 4.0 (361.269); experiment: Test 4: MIC determination, resazurin fluorescence, strain EH 4.0; format: cell-based; details: for IC50: Mycobacterium tuberculosis, read-out: pIC50, Test 4, M. tuberculosis strain EH 4.0 (361.269) (converted); for pIC50: Test 4, M. tuberculosis strain EH 4.0 (361.269)
Text: TEST 4 (See Also Test 1 Above; in this Test a Different Strain of Mycobacterium tuberculosis Strain is Employed)
Appropriate solutions of experimental and reference compounds were made in 96 well plates with 7H9 medium. Samples of Mycobacterium tuberculosis strain EH 4.0 (361.269) were taken from cultures in stationary growth phase. These were first diluted to obtain an optical density of 0.3 at 600 nm wavelength and then diluted 1/100, resulting in an inoculum of approximately 5×10 exp5 colony forming units per well. Plates were incubated at 37° C. in plastic bags to prevent evaporation. After 7 days, resazurin was added to all wells.

[3] = Test 1, M. tuberculosis H37Rv, first test, read-out: pIC50 (converted)
[4] = Test 1, repeated (2nd) test, read-out: pIC50 * (converted)
[5] = Test 1, repeated (3rd) test, read-out: pIC50 ** (converted)
[6] = Test 1, M. tuberculosis H37Rv, first test

Compound	melting point	IC50 [1, 3]	IC50 [1, 4]	IC50 [1, 5]	IC50 [2]	further results
CCc1nc2ncc(Cl)cn2c1C(=O)NCc1ccc(N2CC3(CC(OC(F)F)C3)C2)cc1	163.21 °C	–	–	–	–	–
CCc1nc2ccc(Cl)cn2c1C(=O)NCc1ccc(C2CC3(C2)CN(c2ccc(OC(F)(F)F)cc2)C3)cc1 [Compound 2]	–	16.2 nM	14.8 nM	11.7 nM	50.1 nM	–
CCc1nc2ncc(Cl)cn2c1C(=O)NCc1ccc(C2CC3(C2)CN(c2ccc(OC(F)(F)F)cc2)C3)cc1 [Compound 3]	–	25.7 nM	26.3 nM	25.7 nM	5.01 nM	–
CCc1nc2n(c1C(=O)NCc1ccc(N3CC4(C3)CN(c3ccc(OC(F)(F)F)cc3)C4)cc1)CCCC2 [Compound 6]	–	141 nM	102 nM	129 nM	25.1 nM	–
CCc1nc2ccc(Cl)cn2c1C(=O)NCc1ccc(N2CC3(CC(c4ccc(OC(F)(F)F)cc4)C3)C2)cc1 [Compound 7]	–	100 nM	75.9 nM	79.4 nM	15.8 nM	–
CCc1nc2ncc(Cl)cn2c1C(=O)NCc1ccc(N2CC3(CC(c4ccc(OC(F)(F)F)cc4)C3)C2)cc1 [Compound 8]	–	148 nM	186 nM	170 nM	50.1 nM	–
CCc1nc2ncc(Cl)cn2c1C(=O)NCc1ccc(N2CC3(CC(c4ccccc4)C3)C2)cc1 [Compound 9]	–	83.2 nM	72.4 nM	53.7 nM	12.6 nM	–
CCc1nc2ccc(Cl)cn2c1C(=O)NCc1ccc(N2CC3(CC(c4ccc(S(F)(F)(F)(F)F)cc4)C3)C2)cc1 [Compound 10]	–	148 nM	141 nM	107 nM	31.6 nM	–
CCc1nc2ncc(Cl)cn2c1C(=O)NCc1ccc(N2CC3(CC(c4cccnc4)C3)C2)cc1 [Compound 11]	–	1860 nM	3020 nM	1200 nM	794 nM	–
Cc1nc2sc(Br)cn2c1C(=O)NCc1ccc(N2CC3(CCC3)C2)cc1 [Compound 13]	–	269 nM	257 nM	263 nM	31.6 nM	–
CCc1nc2ccc(Cl)cn2c1C(=O)NCC1CCC2(CCN(c3ccc(OC(F)(F)F)cc3)CC2)CO1 (stereo not shown) [Compound 14]	–	2820 nM	2950 nM	–	398 nM	–
CCc1nc2ccc(Cl)cn2c1C(=O)NCC1CC2(CCN(c3ccc(OC(F)(F)F)cc3)CC2)C1 [Compound 15]	–	102 nM	95.5 nM	–	158 nM	–
CCc1nc2ccc(Cl)cn2c1C(=O)NCc1ccc(N2CC3(CC(F)C3)C2)cc1 [Compound 16]	–	–	–	–	–	pIC50 [1, 6]: 6.55; pIC50 * ([1]; Test 1, repeated (2nd) test): 6.61; pIC50 [2]: 8.0
CCc1nc2ccc(Cl)cn2c1C(=O)NCc1ccc(N2CC3(CC(F)C3)C2)cc1 [Compound 17]	–	–	316 nM	468 nM	–	pIC50 [1, 6]: 7.82; pIC50 [2]: 7.4
CCc1nc2sc(C)cn2c1C(=O)NCc1ccc(N2CC3(CC(F)C3)C2)cc1 [Compound 18]	–	191 nM	123 nM	126 nM	31.6 nM	–
CCc1nc2n(c1C(=O)NCc1ccc(N3CC4(CC(F)C4)C3)cc1)CCCC2 [Compound 19]	–	794 nM	1150 nM	1070 nM	1260 nM	–
CCc1nc2sc(C)cn2c1C(=O)NCc1ccc(N2CC3(CC(O)C3)C2)cc1 [Compound 20]	300 °C	–	–	–	316 nM	–
CCc1nc2sc(C)cn2c1C(=O)NCc1ccc(N2CC3(CC(=O)C3)C2)cc1 [Compound 21]	–	–	–	–	100 nM	IC50 ([1]; read-out: pIC50 (converted)): 2450 nM; IC50 ([1]; read-out: pIC50 * (converted)): 1050 nM; IC50 ([1]; read-out: pIC50 ** (converted)): 1380 nM
Cc1nc2sccn2c1C(=O)NCc1ccc(N2CC3(CC(c4ccc(OC(F)(F)F)cc4)C3)C2)cc1 [Compound 24]	–	–	–	–	251 nM	IC50 ([1]; read-out: pIC50 (converted)): 200 nM; IC50 ([1]; read-out: pIC50 * (converted)): 275 nM; IC50 ([1]; read-out: pIC50 ** (converted)): 115 nM
CCc1nc2sc(C)cn2c1C(=O)NCc1ccc(N2CC3(COC3)C2)cc1 [Compound 27]	–	4070 nM	4170 nM	2880 nM	398 nM	–
CCc1nc2ccc(Cl)cn2c1C(=O)NCc1ccc(N2CC3(CCN(c4ccc(OC(F)(F)F)cc4)CC3)C2)cc1 [Compound 28]	–	6030 nM	7590 nM	7410 nM	3.16 nM	–
CCc1nc2ccc(Cl)cn2c1C(=O)NC1CCC2(CC1)CCN(c1ccc(OC(F)(F)F)cc1)CC2 [Compound 29]	–	7940 nM	6760 nM	7080 nM	7940 nM	–
Cc1nc2sccn2c1C(=O)NCc1ccc(N2CC3(COC3)C2)cc1 [Compound 30]	–	8910 nM	> 12600 nM	11000 nM	7940 nM	–
CCc1c(C(=O)NCc2ccc(N3CC4(CC(F)C4)C3)cc2)c2ccncc2n1C [Compound 31]	–	> 12600 nM	> 12600 nM	> 12600 nM	> 12600 nM	–
CCc1nc2sc(C)cn2c1C(=O)NCc1ccc(N2CC3(C2)CN(c2ccc(OC(F)(F)F)cc2)C3)cc1 [Compound 68]	180.57 °C	–	–	–	63.1 nM	–

Compound	melting point	IC50 [1, 3]	IC50 [1, 4]	IC50 [1, 5]	IC50 [2]	further results
CCc1nc2ccc(Cl)cn2c1C(=O)NCc1ccc(N2CCC3(C2)CN(c2ccc(OC(F)(F)F)cc2)C3)cc1 [Compound 75]	183.86 °C	–	–	–	15.8 nM	–
CCc1nc2ccc(Cl)cn2c1C(=O)NCc1ccc(N2CC3(CCN(c4ccc(OC(F)(F)F)cc4)C3)C2)cc1 [Compound 76]	136.04 °C	–	–	–	25.1 nM	–
CCc1nc2n(c1C(=O)NCc1ccc(N3CC4(CC(c5ccc(OC(F)(F)F)cc5)C4)C3)cc1)CCCC2 [Compound 82]	190.78 °C	–	–	–	63.1 nM	–
CCc1nc2sc(C)cn2c1C(=O)NCc1ccc(N2CC3(CC(c4ccc(OC(F)(F)F)cc4)C3)C2)cc1 [Compound 83]	108.84 °C	–	–	–	100 nM	–
CCc1nc2ccc(Cl)cn2c1C(=O)NCc1ccc(N2CC3(CC(OC)C3)C2)cc1 [Compound 84]	137.48 °C	–	–	–	100 nM	–
CCc1nc2n(c1C(=O)NCc1ccc(N3CC4(CC(OC)C4)C3)cc1)CCCC2 [Compound 85]	147.41 °C	–	–	–	1000 nM	–
CCc1nc2ncc(Cl)cn2c1C(=O)NCc1ccc(N2CC3(CC(OC)C3)C2)cc1 [Compound 86]	127.22 °C	–	–	–	158 nM	–
CCc1nc2ccc(Cl)cn2c1C(=O)NCc1ccc(N2CC3(CC(c4ccc(OC)c(F)c4)C3)C2)cc1 [Compound 87]	190.35 °C	–	–	–	251 nM	–
CCc1nc2ncc(Cl)cn2c1C(=O)NCc1ccc(N2CC3(CC(c4ccc(OC)c(F)c4)C3)C2)cc1 [Compound 88]	156.54 °C	–	–	–	251 nM	–
CCc1nc2ccc(Cl)cn2c1C(=O)NCc1ccc(N2CC3(CC(c4ccncc4)C3)C2)cc1 [Compound 89]	192.86 °C	–	–	–	6310 nM	–
CCc1nc2ccc(Cl)cn2c1C(=O)NCc1ccc(N2CC3(CN(C(C)=O)C3)C2)cc1 [Compound 90]	237.63 °C	–	–	–	12600 nM	–
CCc1nc2ccc(Cl)cn2c1C(=O)NCc1ccc(N2CC3(CN(C(=O)c4ccccc4)C3)C2)cc1 [Compound 91]	204.21 °C	–	–	–	10000 nM	–
CCc1nc2ccc(Cl)cn2c1C(=O)NCc1ccc(C2CC3(C2)CN(C(=O)C(F)(F)F)C3)cc1 [Compound 92]	80.75 °C	–	–	–	251 nM	–
CCc1nc2ccc(Cl)cn2c1C(=O)NCc1ccc(N2CC3(C2)CC2(C3)OCCCO2)cc1 [Compound 95]	154.23 °C	–	–	–	158 nM	–
CCc1nc2ccc(Cl)cn2c1C(=O)NCc1ccc(N2CC3(CC(=O)C3)C2)cc1 [Compound 96]	182.82 °C	–	–	–	126 nM	–
CCc1nc2ccc(Cl)cn2c1C(=O)NCc1ccc(N2CC3(CC(OC(F)(F)F)C3)C2)cc1 [Compound 117]	167.85 °C	–	–	–	20 nM	–
Cc1nc2sc(F)cn2c1C(=O)NCc1ccc(N2CC3(CC(=O)C3)C2)cc1 [Compound 118]	201.34 °C	–	–	–	12600 nM	–
CCc1nc2ccc(Cl)cn2c1C(=O)NCc1ccc(C2CC3(C2)CN(c2cccnc2)C3)cc1 [Compound 119]	147.85 °C	–	–	–	631 nM	–
CCc1nc2ccc(Cl)cn2c1C(=O)NCc1ccc(N2CC3(CC(c4ccccn4)C3)C2)cc1 [Compound 120]	139.57 °C	–	–	–	10000 nM	–
CCc1nc2ncc(Cl)cn2c1C(=O)NCc1ccc(N2CC3(C2)CN(c2cccnc2)C3)cc1 [Compound 121]	241.08 °C	–	–	–	2510 nM	–
CCc1nc2ncc(Cl)cn2c1C(=O)NCc1ccc(C2CC3(C2)CN(c2cccnc2)C3)cc1 [Compound 122]	161.23 °C	–	–	–	794 nM	–
CCc1nc2ccc(Cl)cn2c1C(=O)NCc1ccc(N2CC3(CC(n4cncn4)C3)C2)cc1 [Compound 123]	166.63 °C	–	–	–	1580 nM	–
CCc1nc2ccc(Cl)cn2c1C(=O)NCc1ccc(N2CC3(CC(c4nccs4)C3)C2)cc1 [Compound 124]	135.97 °C	–	–	–	79.4 nM	pIC50 [2]: 7.2
CCc1nc2ccc(Cl)cn2c1C(=O)NCc1ccc(N2CCC3(CC2)CC(F)(F)C3)cc1 [Compound 125]	146.77 °C	–	–	–	2 nM	–
